Reference: US4323550A, “Halogenohydrates of N,N-disubstituted derivatives of piperazine having anticariogenic properties” (priority 1976, dated 1982)

How the values were obtained:
[1] = Penetration of fluorine 18 into dental enamel after topical application (Muhlemann biopsy); parameters: species or system children
Description: The anticariogenic activity of the difluorohydrate of N,N'-di(hydroxy-ethyl) piperazine has been evidenced by comparison with sodium fluoride known for its cariopreventive topical properties. A comparative study has been made of the penetration into the dental enamel of the fluorine contained in the molecule according to the invention and of the fluorine contained in sodium fluoride.
For this comparison the difluorohydrate of N,N'-di(hydroxy-ethyl) piperazine was marked at the fluorine 18, by isotopic exchange by dissolving some crystals of the product according to the invention in a solution of pure fluorine 18 without entrainer. The same was done for the sodium fluoride.
The study of the penetration of the fluorine into the enamel was made on several teeth to compare the behavior of the product of the invention and of sodium fluoride in supplying fluorine and in the penetration of the latter into the deepest layers of the dental tissue.
The tests were performed on 30 premolar teeth taken from normal children 9 to 11 years old. Eighteen teeth were treated by topical application of the radioactive solutions of the difluoro-hydrate of N,N'-di(hydroxy-ethyl) piperazine or of NaF adjusted to pH=3.5; the other 12 were treated with the same solutions adjusted to a pH of 7.4.
The radioactive solutions are obtained by dissolving 69 mg of the difluorohydrate and 81.3 mg of NaF, respectively, in 1 and 3 ml of fluorine 18 solution without entrainer. Thus solutions titering 1.23% fluorine are obtained.
As the difluorohydrate solution is already at pH=3.5, it is sufficient to acidify the NaF solution by addition of about 0.2 ml hydrochloric acid 6 M, to 3 ml of the radioactive solution.
In this case, the difluorohydrate's nature of organic salt can be preserved and its solution neutralized at 1.23% of fluorine in 1 ml by addition of about 110 mg of its N,N'-di(hydroxyethyl) piperazine base.
For the experimentation one determines two enamel plagues on each tooth. For this, one applies on the crowns, separated from each other by 2 or 3 mm, two round disks of a diameter of 3 mm cut out from adhesive tape. The crown is then covered with a layer of impermeable varnish. When the varnish is dry, the patches of adhesive tape are removed, thus bearing the two zones of enamel to be treated.
The spot application of the fluorinated solution is done by means of a sponge imbibed with 0.5 ml of the solution. This sponge is inserted in a polyethylene tube to limit the surface of contact between tooth and sponge to the circumference of the enamel zone treated.
The sampling of the enamel is done by Muhlemann's biopsy technique: A patch of blotting paper impregnated with 4 microliters of perchloric acid 2 M is applied on the trated enamel for 30 seconds. The enamel is dried with a second patch of blotting paper. It is on these patches which contain the dissolved enamel that we measure the radioactivity.
There are given in Table I all the results relating to the acid treatment, in Table II all the results relating to the treatment at neutral pH. The fluorine values are those obtained by measuring the radioactivity of the samples.
The columns […] and N2 represent the mass of fluorine measured on the second biopsy.
We have marked R1 and R1 and R2 the ratios G1 /G2 and N1 /N2, and R3 the ratio. [formula] R1 and R2 permitting to compare the quantities of fluorine at the same depth. R3 permits comparing the accumulation of fluorine in the tooth.

Hygroscopicity = format: physicochemical; conditions: crystals
rats = assay: in vivo; format: in vivo; conditions: rat; for Deaths: oral
Description: (§1) By way of example there are described below the comparative tests made on difluorohydrate of N,N'-di(hydroxyethyl) piperazine and on fluorohydrate of hexadecylamine or "ELMEX 242".
(§2) The acute toxidity was studies in rats and in mice.
(§3) The animals came from a homogeneous breed. The mice weighed between 19 and 21 g and the rats weighed from 120 to 140 g. The mice were grouped in lots of 10 and the rats in lots of 8.
(§4) The administrations took place orally at a volume of 0.5 ml per 20 g of mouse and 1 ml per 100 g of rat. The LD50 was determined by the method of Lichfield and Wilcoxon.
(§5) As regards the difluorohydrate of N,N'-di(hydroxyethyl) piperazine, the administered solution was prepared by diluting the mother solution to 65.4%, the dilutions being made after having weighed this solution. The administered dose is expressed by weight, taking account of the indicated strength of this solution.
(§6) For the solid "ELMEX 242" an aqueous suspension was prepared with the aid of solubilizing agents (e.g. Tween-polyoxyethylene sorbitan monolaurate). A very thick suspension is then obtained which tends to foam heavily, is difficult to get into the esophageal sound, and the determination of its volume is rendered difficult by the foam.
(§7) The results obtained with the "ELMEX" are therefore rather approximate.

in vivo = format: in vivo; conditions: in vivo; rat, oral; Lichfield and Wilcoxon
Description: as §1, §2, §3, §4, §5, §6, §7

SMILES: OCCN1CCN(CCO)CC1 [DIFLUOROHYDRATE OF N,N'-DI(HYDROXY-ETHYL) PIPERAZINE]
- cases with R1 less than 1 ([1]; acid medium, 18 teeth): 16 cases
- cases with R3 between 1 and 1.7 ([1]; acid medium, 18 teeth): 8 cases
- cases with R3 greater than 1.7 ([1]; acid medium, 18 teeth): 4 cases
- cases with R3 less than 1 ([1]; acid medium, 18 teeth): 5 cases
- mean value of R3 ([1]; acid medium, 18 teeth, standard deviation 0.6): 1.5
- cases with R1 greater than 1 ([1]; neutral medium, 12 teeth): 10 cases
- cases with R3 between 1 and 1.7 ([1]; neutral medium, 12 teeth): 7 cases
- cases with R3 greater than 1.7 ([1]; neutral medium, 12 teeth): 2 cases
- cases with R3 less than 1 ([1]; neutral medium, 12 teeth): 3 cases
- mean value of R1 ([1]; neutral medium, 12 teeth): 3.0
- average of R3 ([1]; neutral medium, 12 teeth, standard deviation 0.4): 1.2
- average fluorine sampled in the two biopsies, acid pH compared with neutral pH ([1]; pH 3.5 versus pH 7.4): 2.6
- anticariogenic action compared with sodium fluoride ([1]; same pH conditions): effects comparable to those of sodium fluoride
- hygroscopicity (Hygroscopicity): very hygroscopic
- hygroscopicity (Hygroscopicity; listed as difluorohydrate): particularly hygroscopic
- symptoms / behavior (rats; in vivo, po): Some diarrhea and some trembling appear.
- Deaths (rats; 250 mg/kg, D + 1, 8 per lot): 0
- Deaths (rats; 250 mg/kg, D + 2, 8 per lot): 0
- Deaths (rats; 250 mg/kg, D + 5, 8 per lot): 0
- Deaths (rats; 250 mg/kg, D + 10, 8 per lot): 0
- Deaths (rats; 500 mg/kg, D + 1, 8 per lot): 0
- Deaths (rats; 500 mg/kg, D + 2, 8 per lot): 0
- Deaths (rats; 500 mg/kg, D + 5, 8 per lot): 0
- Deaths (rats; 500 mg/kg, D + 10, 8 per lot): 0
- Deaths (rats; 750 mg/kg, D + 1, 8 per lot): 1
- Deaths (rats; 750 mg/kg, D + 2, 8 per lot): 3
- Deaths (rats; 750 mg/kg, D + 5, 8 per lot): 4
- Deaths (rats; 750 mg/kg, D + 10, 8 per lot): 4
- Deaths (rats; 1000 mg/kg, D + 1, 8 per lot): 2
- Deaths (rats; 1000 mg/kg, D + 2, 8 per lot): 5
- Deaths (rats; 1000 mg/kg, D + 5, 8 per lot): 6
- Deaths (rats; 1000 mg/kg, D + 10, 8 per lot): 6
- Deaths (rats; 1250 mg/kg, D + 1, 8 per lot): 5
- Deaths (rats; 1250 mg/kg, D + 2, 8 per lot): 7
- Deaths (rats; 1250 mg/kg, D + 5, 8 per lot): 8
- Deaths (rats; 1250 mg/kg, D + 10, 8 per lot): 8
- LD50 at 240 h (in vivo): 790 mg/kg
